Measured values as given in patent US20250154144A1 (CHILDREN'S HOSPITAL MEDICAL CENTER, priority 2021, published 2025).
Like-named read-outs stand apart in the source and are kept apart here.

Legend:
IRAK4 = target: T1, IRAK4 (Homo sapiens, UniProt Q9NWZ3); assay: RBC HotSpot Kinase Assay, IRAK4; details: IRAK4 IC50
T1 sequence (Q9NWZ3 1-460): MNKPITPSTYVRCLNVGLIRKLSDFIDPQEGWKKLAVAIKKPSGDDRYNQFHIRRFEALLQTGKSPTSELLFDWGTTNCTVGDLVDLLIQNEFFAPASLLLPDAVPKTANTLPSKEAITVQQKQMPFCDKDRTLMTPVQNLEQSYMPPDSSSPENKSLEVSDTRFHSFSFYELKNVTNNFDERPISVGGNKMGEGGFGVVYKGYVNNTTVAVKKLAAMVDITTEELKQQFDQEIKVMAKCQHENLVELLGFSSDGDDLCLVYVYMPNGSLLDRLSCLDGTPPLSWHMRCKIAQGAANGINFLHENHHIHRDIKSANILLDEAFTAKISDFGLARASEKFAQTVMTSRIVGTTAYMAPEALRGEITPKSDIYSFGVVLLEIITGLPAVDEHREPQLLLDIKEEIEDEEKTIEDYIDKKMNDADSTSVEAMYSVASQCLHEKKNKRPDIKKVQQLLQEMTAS

MOLM14 D835Y cells = assay: cells; format: cell-based; details: 48 hours, Cell Titer Glo, read-out: MOLM14 D835Y IC50
MOLM14 F691L cells = assay: cells; format: cell-based; details: read-out: MOLM14 F691L IC50
IRAK1 = IRAK1 (Homo sapiens, UniProt P51617); assay: RBC HotSpot Kinase Assay, IRAK1; details: IRAK1 IC50
FLT3 = target: T2, FLT3 (Homo sapiens, UniProt P36888); assay: RBC HotSpot Kinase Assay, FLT3
T2 sequence (P36888 610-943 limits assumed): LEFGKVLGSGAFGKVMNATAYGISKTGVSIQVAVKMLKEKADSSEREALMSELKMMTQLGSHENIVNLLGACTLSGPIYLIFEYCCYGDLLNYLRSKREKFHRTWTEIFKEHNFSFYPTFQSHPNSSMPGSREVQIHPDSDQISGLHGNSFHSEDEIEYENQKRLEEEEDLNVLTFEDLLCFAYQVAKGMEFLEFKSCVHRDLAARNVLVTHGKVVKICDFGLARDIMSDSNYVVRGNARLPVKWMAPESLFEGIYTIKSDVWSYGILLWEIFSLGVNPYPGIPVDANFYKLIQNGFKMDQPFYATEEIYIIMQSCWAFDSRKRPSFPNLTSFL

THP1 cells = assay: Combination drug screening, Cell Titer Glo, 10 × 10 matrix, THP1 cells; format: cell-based; details: THP1 cells; for Excess HSA Score: 10 × 10
MOLM14(D835Y) cells = format: cell-based; details: MOLM14(D835Y) cells; for Excess HSA Score: 10 × 10
[1] = Homo sapiens, MOLM-14, 48 h, 48 hours, Cell Titer Glo
[2] = combination with (+)-BAY-1251152
[3] = combination with Eprenetapopt/APR-246
[4] = combination with Venetoclax (ABT-199)

Chain of IRAK1 (P51617 whole entry): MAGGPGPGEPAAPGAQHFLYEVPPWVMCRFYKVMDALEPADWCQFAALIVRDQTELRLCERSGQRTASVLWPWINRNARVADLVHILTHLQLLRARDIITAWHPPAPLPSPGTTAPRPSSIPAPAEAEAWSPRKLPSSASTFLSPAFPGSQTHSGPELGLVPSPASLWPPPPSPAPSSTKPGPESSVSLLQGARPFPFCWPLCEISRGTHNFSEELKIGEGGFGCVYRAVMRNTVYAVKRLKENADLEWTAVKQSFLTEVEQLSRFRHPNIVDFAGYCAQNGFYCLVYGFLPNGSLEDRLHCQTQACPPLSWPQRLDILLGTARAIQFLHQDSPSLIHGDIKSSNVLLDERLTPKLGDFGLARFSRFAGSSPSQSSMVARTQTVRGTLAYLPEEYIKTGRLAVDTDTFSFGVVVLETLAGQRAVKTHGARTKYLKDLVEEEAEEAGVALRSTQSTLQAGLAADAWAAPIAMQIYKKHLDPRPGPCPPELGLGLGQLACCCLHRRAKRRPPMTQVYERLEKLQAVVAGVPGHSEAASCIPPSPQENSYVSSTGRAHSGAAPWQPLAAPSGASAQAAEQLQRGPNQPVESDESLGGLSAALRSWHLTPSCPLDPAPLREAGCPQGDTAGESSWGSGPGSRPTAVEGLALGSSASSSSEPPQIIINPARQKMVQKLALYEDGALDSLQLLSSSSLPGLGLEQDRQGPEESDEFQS

CC(O)(c1cn2c(-c3ccnc(N[C@@H]4CCCNC4)n3)cnc2cn1)C(F)(F)F (single isomer, unassigned) [Compound 67]
IC50 (IRAK4): 22 nM | IC50 (MOLM14 D835Y cells; Homo sapiens, MOLM-14, 48 h): 137 nM | IC50 (MOLM14 F691L cells; [1]): 770 nM | IC50 (IRAK1): 31 nM | IC50 (FLT3; FLT3 IC50): < 0.5 nM

CC(O)(c1cn2c(-c3ccnc(N[C@H]4CNC[C@@H]4F)n3)cnc2cn1)C(F)(F)F (single isomer, unassigned) [Compound 71]
IC50 (IRAK4): < 0.5 nM | IC50 (MOLM14 D835Y cells): 69 nM | IC50 (MOLM14 F691L cells; 48 hours, Cell Titer Glo): 686 nM | IC50 (IRAK1): 5 nM | IC50 (FLT3; read-out: FLT3 IC50): < 0.5 nM

CC(O)(c1cn2c(-c3cncc(N[C@@H]4CCCNC4)n3)cnc2cn1)C(F)(F)F (single isomer, unassigned) [Compound 73]
IC50 (IRAK4): 37 nM | IC50 (MOLM14 D835Y cells): 612 nM | IC50 (MOLM14 F691L cells; 48 hours, Cell Titer Glo): 969 nM | IC50 (IRAK1): 91 nM | IC50 (FLT3; FLT3 IC50): 8 nM

CC(O)(c1cn2c(-c3cncc(N[C@@H]4CCCNC4)n3)cnc2cn1)C(F)(F)F (single isomer, unassigned) [Compound 74]
IC50 (IRAK4): 4 nM | IC50 (MOLM14 D835Y cells): 217 nM | IC50 (MOLM14 F691L cells; 48 hours, Cell Titer Glo): 344 nM | IC50 (IRAK1): 29 nM | IC50 (FLT3; FLT3 IC50): 3 nM

CC(O)(c1cn2c(-c3cncc(N[C@H]4CNC[C@@H]4F)n3)cnc2cn1)C(F)(F)F (single isomer, unassigned) [Compound 75]
IC50 (IRAK4): 40 nM | IC50 (MOLM14 D835Y cells; Homo sapiens, MOLM-14, 48 h): 1090 nM | IC50 (MOLM14 F691L cells; [1]): 1720 nM | IC50 (IRAK1): 262 nM | IC50 (FLT3; FLT3 IC50): 9 nM

CC(O)(c1cn2c(-c3cncc(N[C@H]4CNC[C@@H]4F)n3)cnc2cn1)C(F)(F)F (single isomer, unassigned) [Compound 77]
IC50 (IRAK4): 4 nM | IC50 (MOLM14 D835Y cells): 686 nM | IC50 (MOLM14 F691L cells; 48 hours, Cell Titer Glo): 1930 nM | IC50 (IRAK1): 89 nM | IC50 (FLT3; FLT3 IC50): 7 nM

CC(O)(c1cn2c(-c3cncc(N[C@H]4CNCC[C@@H]4F)n3)cnc2cn1)C(F)(F)F (single isomer, unassigned) [Compound 78]
IC50 (IRAK4): < 0.5 nM | IC50 (MOLM14 D835Y cells): 193 nM | IC50 (MOLM14 F691L cells; 48 hours, Cell Titer Glo): 386 nM | IC50 (IRAK1): 7 nM | IC50 (FLT3; read-out: FLT3 IC50): < 0.5 nM

CC(C)Oc1ccn2c(-c3cncc(N[C@@H]4CCCNC4)n3)cnc2c1 [Compound 1, 6-(7-isopropoxyimidazo[1,2-a]pyridin-3-yl)-N-[(3R)-3-piperidyl]pyrazin-2-amine]
IC50 (IRAK4): 2 nM | IC50 (MOLM14 D835Y cells; Homo sapiens, MOLM-14, 48 h): 37 nM | IC50 (MOLM14 F691L cells; [1]): 73 nM | IC50 (IRAK1): 111 nM | IC50 (FLT3; FLT3 IC50): < 0.5 nM

COc1ccn2c(-c3cncc(N[C@H]4CNC[C@@H]4F)n3)cnc2c1 [Compound 4, N-((3S,4S)-4-fluoropyrrolidin-3-yl)-6-(7-methoxyimidazo[1,2-a]pyridin-3-yl)pyrazin-2-amine]
IC50 (IRAK4): 2 nM | IC50 (MOLM14 D835Y cells; Homo sapiens, MOLM-14, 48 h): 77 nM | IC50 (MOLM14 F691L cells; [1]): 244 nM | IC50 (IRAK1): 29 nM | IC50 (FLT3; FLT3 IC50): < 0.5 nM

FC(F)COc1ccn2c(-c3cncc(N[C@H]4CNC[C@@H]4F)n3)cnc2c1 [Compound 7]
IC50 (IRAK4): 4 nM | IC50 (MOLM14 D835Y cells; Homo sapiens, MOLM-14, 48 h): 69 nM | IC50 (MOLM14 F691L cells; [1]): 217 nM | IC50 (IRAK1): 85 nM | IC50 (FLT3; FLT3 IC50): < 0.5 nM

FC(F)COc1ccn2c(-c3cncc(N[C@@H]4CCCNC4)n3)cnc2c1 [Compound 8, (R)-6-(7-(2,2-difluoroethoxy)imidazo[1,2-a]pyridin-3-yl)-N-(piperidin-3-yl)pyrazin-2-amine]
IC50 (IRAK4): < 0.5 nM | IC50 (MOLM14 D835Y cells; Homo sapiens, MOLM-14, 48 h): 14 nM | IC50 (MOLM14 F691L cells; [1]): 39 nM | IC50 (IRAK1): 42 nM | IC50 (FLT3; FLT3 IC50): < 0.5 nM

F[C@H]1CNC[C@@H]1Nc1cncc(-c2cnc3cc(OC4CC4)ccn23)n1 [Compound 10, 6-(7-cyclopropoxyimidazo[1,2-a]pyridin-3-yl)-N-((3S,4S)-4-fluoropyrrolidin-3-yl)pyrazin-2-amine]
IC50 (IRAK4): 9 nM | IC50 (MOLM14 D835Y cells; Homo sapiens, MOLM-14, 48 h): 244 nM | IC50 (MOLM14 F691L cells; [1]): 770 nM | IC50 (IRAK1): 24 nM | IC50 (FLT3; FLT3 IC50): < 0.5 nM

c1cn2c(-c3cncc(N[C@@H]4CCCNC4)n3)cnc2cc1OC1CC1 [Compound 11, (R)-6-(7-cyclopropoxyimidazo[1,2-a]pyridin-3-yl)-N-(piperidin-3-yl)pyrazin-2-amine]
IC50 (IRAK4): 5 nM | IC50 (MOLM14 D835Y cells; Homo sapiens, MOLM-14, 48 h): 43 nM | IC50 (MOLM14 F691L cells; [1]): 109 nM | IC50 (IRAK1): 85 nM | IC50 (FLT3; FLT3 IC50): < 0.5 nM

FC(F)Oc1ccn2c(-c3cncc(N[C@H]4CNC[C@@H]4F)n3)cnc2c1 [Compound 13, 6-(7-(difluoromethoxy)imidazo [1,2-a]pyridin-3-yl)-N-((3S,4S)-4-fluoropyrrolidin-3-yl)pyrazin-2-amine]
IC50 (IRAK4): 21 nM | IC50 (MOLM14 D835Y cells; Homo sapiens, MOLM-14, 48 h): 307 nM | IC50 (MOLM14 F691L cells; [1]): 864 nM | IC50 (IRAK1): 86 nM | IC50 (FLT3; FLT3 IC50): 1 nM

FC(F)Oc1ccn2c(-c3cncc(N[C@@H]4CCCNC4)n3)cnc2c1 [Compound 14, (R)-6-(7-(difluoromethoxy)imidazo [1,2-a]pyridin-3-yl)-N-(piperidin-3-yl)pyrazin-2-amine]
IC50 (IRAK4): 12 nM | IC50 (MOLM14 D835Y cells; Homo sapiens, MOLM-14, 48 h): 86 nM | IC50 (MOLM14 F691L cells; [1]): 193 nM | IC50 (IRAK1): 447 nM | IC50 (FLT3; FLT3 IC50): 0.8 nM

COc1cc2ncc(-c3cncc(N[C@H]4CNC[C@@H]4F)n3)n2cc1C(C)(C)O [Compound 19, 2-(3-(6-(((3S,4S)-4-fluoropyrrolidin-3-yl)amino)pyrazin-2-yl)-7-methoxyimidazo[1,2-a]pyridin-6-yl)propan-2-ol]
IC50 (IRAK4): 0.8 nM | IC50 (MOLM14 D835Y cells; Homo sapiens, MOLM-14, 48 h): 109 nM | IC50 (MOLM14 F691L cells; [1]): 193 nM | IC50 (IRAK1): 3 nM | IC50 (FLT3; FLT3 IC50): < 0.5 nM

COc1ccn2c(-c3ccnc(N[C@H]4CNCC[C@@H]4F)n3)cnc2c1 [Compound 30, N-((3S,4S)-4-fluoropiperidin-3-yl)-4-(7-methoxyimidazo[1,2-a]pyridin-3-yl)pyrimidin-2-amine]
Excess HSA Score (THP1 cells; [2]): −655.1 | Excess HSA Score (THP1 cells; combination with AMG-232): −76.43 | Excess HSA Score (THP1 cells; combination with AZD-5363): −13.97 | Excess HSA Score (THP1 cells; [3]): 389.5 | Excess HSA Score (THP1 cells; combination with Ivosidenib): 59.9 | Excess HSA Score (THP1 cells; combination with Lenalidomide): −90.11 | Excess HSA Score (THP1 cells; combination with Palbociclib): −678.3 | Excess HSA Score (THP1 cells; combination with Prednisolone): 188.1 | Excess HSA Score (THP1 cells; combination with SNDX-5613): 1.322 | Excess HSA Score (THP1 cells; combination with TNO-155): 591.3 | Excess HSA Score (THP1 cells; combination with Trametinib): −203.6 | Excess HSA Score (THP1 cells; combination with Ulixertinib): −362.3 | Excess HSA Score (THP1 cells; [4]): −1632 | Comments (THP1 cells; combination with Ivosidenib): Antagonistic | Comments (THP1 cells; combination with SNDX-5613): Additive | Comments (THP1 cells; [4]): Synergistic | IC50 (MOLM14 F691L cells; Homo sapiens, MOLM-14, 48 h): 61 nM | Excess HSA Score (MOLM14(D835Y) cells; [2]): −230 | Excess HSA Score (MOLM14(D835Y) cells; combination with AMG-232): −524.3 | Excess HSA Score (MOLM14(D835Y) cells; combination with AZD-5363): −738.1 | Excess HSA Score (MOLM14(D835Y) cells; [3]): −284.6 | Excess HSA Score (MOLM14(D835Y) cells; combination with Ivosidenib): −74.07 | Excess HSA Score (MOLM14(D835Y) cells; combination with Lenalidomide): 299.3 | Excess HSA Score (MOLM14(D835Y) cells; combination with Palbociclib): −448.3 | Excess HSA Score (MOLM14(D835Y) cells; combination with Prednisolone): 3.447 | Excess HSA Score (MOLM14(D835Y) cells; combination with SNDX-5613): −303.5 | Excess HSA Score (MOLM14(D835Y) cells; combination with TNO-155): −922.2 | Excess HSA Score (MOLM14(D835Y) cells; combination with Trametinib): −313.7 | Excess HSA Score (MOLM14(D835Y) cells; combination with Ulixertinib): 14.83 | Excess HSA Score (MOLM14(D835Y) cells; [4]): −1291 | Comments (MOLM14(D835Y) cells; combination with Prednisolone): Antagonistic | Comments (MOLM14(D835Y) cells; [4]): Synergistic
